# Values quoted from earlier work, collected in US20190175566A1, “ANTI-TUMOR COCKTAIL COMPRISING AN ANTI-TUMOR AGENT SELECTIVE FOR TUMOR ACIDITY, AN ANTIOXIDANT, AND A P-GLYCOPROTEIN INHIBITOR” (ARION TECNOLOGIA BRASIL- GESTAO DE ATIVOS S/A, priority 2016, published 2019).
# Where two headings read alike, the source gives them in different places.
# Key:
# [1] = in mice, intravenous route
smiles,measurement,setting,value
O=C(O)c1c2ccccc2nc2ccccc12 [9-acridine carboxylic acid],toxicity (LD50),route not given,240 mg/kg
same,toxicity (LD50),via intraperitoneal application (subcutaneously),240 mg/kg
"COC1=C(OC)C(=O)C(C/C=C(\C)CC/C=C(\C)CC/C=C(\C)CC/C=C(\C)CC/C=C(\C)CC/C=C(\C)CC/C=C(\C)CC/C=C(\C)CC/C=C(\C)CCC=C(C)C)=C(C)C1=O [Co-Q10, Coenzyme Q10]",toxicity (LD50),orally,~20000 mg/kg
"COc1cc2c(cc1OC)CN(CCc1ccc(NC(=O)c3cc(OC)c(OC)cc3NC(=O)c3cnc4ccccc4c3)cc1)CC2 [Tariquidar, tariquidar]",toxicity (LD50),[1],300 mg/kg
